From ChEMBL document CHEMBL2163263, “Mechanism inspired development of rationally designed dihydrofolate reductase inhibitors as anticancer agents” (J Med Chem, 2012)
Active and inactive are the calls of the source. The rule behind the calls is not given here.

Experiments:
[1] = target: T1, Dihydrofolate reductase (Homo sapiens) (UniProt P00374); assay: Binding affinity to DHFR assessed as change in UV-Vis spectra at 10 uM in HEPES buffer at pH 7.2 by UV-Visible spectroscopy
T1 sequence (whole entry): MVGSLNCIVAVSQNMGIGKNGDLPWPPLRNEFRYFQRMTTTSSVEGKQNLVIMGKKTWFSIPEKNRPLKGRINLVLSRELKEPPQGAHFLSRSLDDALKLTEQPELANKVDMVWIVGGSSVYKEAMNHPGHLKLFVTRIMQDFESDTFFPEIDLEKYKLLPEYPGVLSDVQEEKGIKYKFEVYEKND

[2] = target: T1, Dihydrofolate reductase (Homo sapiens); assay: Binding affinity to DHFR by [1H]NMR spectroscopy
[3] = (§1) Growth inhibition of human NCI60 cells incubated for 48 hrs by SRB assay; type: functional; conditions: NCI60, 48 h
[4] = Total tumor growth inhibition of human NCI60 cells incubated for 48 hrs by SRB assay; type: functional; conditions: NCI60, 48 h
[5] = Toxicity against human NCI60 cells incubated for 48 hrs by SRB assay; type: cell-based; conditions: nci60, 48 h
[6] = Therapeutic index, ratio of LC50 for human NCI60 cells to GI50 for human NCI60 cells; type: cell-based; conditions: read-out: TI
[7] = target: T1, Dihydrofolate reductase (Homo sapiens)
Description: Inhibition of DHFR reduction in conversion of DHF to THF in presence of NADPH by DHFR assay

COLO 205 = assay: Growth inhibition of human COLO205 cells incubated for 48 hrs by SRB assay; type: functional; conditions: COLO 205, 48 h, pooled result: one value given for 7 cell lines, strains, targets or settings
NCI60 = assay: as §1; type: functional
[8] = target: T1, Dihydrofolate reductase (Homo sapiens); assay: Binding affinity to DHFR at 48 mM by [1H]NMR spectroscopy
[9] = target: Thymidylate synthase (Homo sapiens) (UniProt P04818); assay: Binding affinity to thymidylate synthase assessed as change in UV-Vis spectra at 10 uM in HEPES buffer at pH 7.2 by UV-Visible spectroscopy
NCI-H522 = assay: Growth inhibition of human NCI-H522 cells incubated for 48 hrs by SRB assay; type: functional; conditions: NCI-H522, 48 h
UACC-257 = assay: Growth inhibition of human UACC257 cells incubated for 48 hrs by SRB assay; type: functional; conditions: UACC-257, 48 h
OVCAR-3 = assay: Growth inhibition of human OVCAR3 cells incubated for 48 hrs by SRB assay; type: functional; conditions: OVCAR-3, 48 h
A498 = assay: Growth inhibition of human A498 cells incubated for 48 hrs by SRB assay; type: functional; conditions: A498, 48 h
MCF7 = assay: Growth inhibition of human MCF7 cells incubated for 48 hrs by SRB assay; type: functional; conditions: MCF7, 48 h
Hs-578T = assay: Growth inhibition of human Hs578T cells incubated for 48 hrs by SRB assay; type: functional
MDA-MB-468 = assay: Growth inhibition of human MDA-MB-468 cells incubated for 48 hrs by SRB assay; type: functional; conditions: MDA-MB-468, 48 h
[10] = target: T1, Dihydrofolate reductase (Homo sapiens); assay: Inhibition of DHFR reduction in conversion of DHF to THF at 100 nM in presence of NADPH by DHFR assay
[11] = target: T1, Dihydrofolate reductase (Homo sapiens); assay: Inhibition of DHFR reduction in conversion of DHF to THF at 1 uM in presence of NADPH by DHFR assay
[12] = target: T1, Dihydrofolate reductase (Homo sapiens); assay: Inhibition of DHFR reduction in conversion of DHF to THF at 10 uM in presence of NADPH by DHFR assay
[13] = target: T1, Dihydrofolate reductase (Homo sapiens); assay: Inhibition of DHFR reduction in conversion of DHF to THF at 100 uM in presence of NADPH by DHFR assay
[14] = target: T1, Dihydrofolate reductase (Homo sapiens); assay: Inhibition of DHFR reduction in conversion of DHF to THF at 10 nM in presence of NADPH by DHFR assay
SR = assay: Growth inhibition of human SR cells incubated for 48 hrs by SRB assay; type: functional
cells = conditions: Homo sapiens, NCI60, 48 h
[15] = target: Thymidine phosphorylase (Homo sapiens) (UniProt P19971); assay: Binding affinity to […] assessed as change in UV-Vis spectra at 10 uM in HEPES buffer at pH 7.2 by UV-Visible spectroscopy
[16] = target: T1, Dihydrofolate reductase (Homo sapiens); assay: Binding affinity to DHFR at 32 mM by [1H]NMR spectroscopy

Sequence of Thymidylate synthase (Homo sapiens) (P04818 2-313 limits assumed): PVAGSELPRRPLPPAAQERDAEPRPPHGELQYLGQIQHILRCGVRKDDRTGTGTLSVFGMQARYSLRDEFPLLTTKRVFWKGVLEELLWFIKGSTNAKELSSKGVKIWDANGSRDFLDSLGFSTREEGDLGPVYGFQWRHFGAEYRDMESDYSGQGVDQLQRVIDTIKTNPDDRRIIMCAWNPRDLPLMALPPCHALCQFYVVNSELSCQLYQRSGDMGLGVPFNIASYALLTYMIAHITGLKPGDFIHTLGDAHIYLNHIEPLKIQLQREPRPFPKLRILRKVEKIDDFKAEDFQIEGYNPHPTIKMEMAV
Sequence of Thymidine phosphorylase (Homo sapiens) (P19971 whole entry, looked up): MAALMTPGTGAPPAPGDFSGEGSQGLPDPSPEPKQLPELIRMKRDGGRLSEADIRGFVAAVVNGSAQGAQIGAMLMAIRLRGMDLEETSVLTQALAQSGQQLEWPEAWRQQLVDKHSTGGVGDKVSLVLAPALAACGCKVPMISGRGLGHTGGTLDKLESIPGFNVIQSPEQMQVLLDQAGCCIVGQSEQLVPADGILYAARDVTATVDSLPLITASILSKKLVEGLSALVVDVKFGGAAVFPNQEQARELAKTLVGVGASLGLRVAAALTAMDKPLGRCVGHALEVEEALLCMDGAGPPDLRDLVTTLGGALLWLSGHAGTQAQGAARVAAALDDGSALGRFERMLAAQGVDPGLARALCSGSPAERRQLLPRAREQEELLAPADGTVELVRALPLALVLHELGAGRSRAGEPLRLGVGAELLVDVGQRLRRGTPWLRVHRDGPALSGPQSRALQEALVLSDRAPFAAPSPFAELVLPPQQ

Structure (SMILES)	Activity [1]	Activity [2]	GI50 [3] [µM]	TGI [4] [µM]	LC50 [5] [µM]	selectivity ratio [6]	IC80 [7] [µM]	further results
O=C1/C(=C\c2cn(CC(O)CN3CCCCC3)c3ccccc23)c2ccccc2N1c1c(Cl)cccc1Cl (centres undefined)	inactive	Active	1.8	3.2	9.1	5.1	0.89	–
CC1=NN(c2cccc(Cl)c2)C(=O)/C1=C\c1cn(CC(O)CN2CCCCC2)c2ccccc12 (centres undefined)	inactive	Active	5.5	16.9	47.8	18.4	1.06	GI50 (COLO 205): 1700 nM
COc1cc(/C=C2\C(=O)N(c3cccc(Cl)c3)N=C2C)cc(OC)c1O	inactive	inactive	–	–	–	–	–	growth inhibition (GI) (NCI60): inactive
COc1cc(C=C2C(=O)N(C)C(=O)N(C)C2=O)cc(OC)c1O	inactive	inactive	–	–	–	–	–	growth inhibition (GI) (NCI60): inactive
COc1cc(/C=C2\C(=O)Nc3ccccc32)cc(OC)c1O	–	–	3.5	21.4	72.4	–	–	Activity [8]: Active; Activity [9]: inactive; GI50 (NCI-H522): 600 nM; GI50 (UACC-257): 600 nM; GI50 (OVCAR-3): 600 nM; GI50 (A498): 600 nM; GI50 (MCF7): 600 nM; GI50 (Hs-578T): 600 nM; GI50 (MDA-MB-468): 600 nM; inhibition [10]: > 90%; inhibition [11]: > 90%; inhibition [12]: > 90%; inhibition [13]: > 90%; inhibition [14]: > 90%; GI50 (SR): 600 nM; IC90 [7]: 1360 nM; GI50 (cells): 600 nM; Activity [15]: inactive
COc1ccc2c(c1)c(CC(=O)O)c(C)n2C(=O)c1ccc(Cl)cc1 [INDOMETHACIN]	–	–	64.3	–	–	–	–	–
COc1cc(/C=C2\C(=O)N(c3c(Cl)cccc3Cl)c3ccccc32)cc(OC)c1O	–	–	1.5	19.4	61.6	41.1	10.1	Activity [9]: inactive; Activity [16]: Active; K [1]: 1.6 ×10⁷ /M; Activity [15]: inactive
CC1=NN(c2cccc(Cl)c2)C(=O)/C1=C\c1c[nH]c2ccc(Br)cc12	inactive	Active	3.9	17.7	50.1	12.8	–	–
O=C1/C(=C\c2ccccn2)c2ccccc2N1c1c(Cl)cccc1Cl	inactive	Active	2	9.1	27.5	13.7	–	–
